pEC50: −log10 of the molar value.
Legend:
[1] = target: T1, hPPARβ/δ (Homo sapiens, UniProt Q03181); experiment: PPAR transactivation assay, human chimeric PPAR/Gal4 reporter luciferase system in Cos-7 cells (PPARβ/δ); assay type: cell-based
T1 sequence (Q03181 171-441): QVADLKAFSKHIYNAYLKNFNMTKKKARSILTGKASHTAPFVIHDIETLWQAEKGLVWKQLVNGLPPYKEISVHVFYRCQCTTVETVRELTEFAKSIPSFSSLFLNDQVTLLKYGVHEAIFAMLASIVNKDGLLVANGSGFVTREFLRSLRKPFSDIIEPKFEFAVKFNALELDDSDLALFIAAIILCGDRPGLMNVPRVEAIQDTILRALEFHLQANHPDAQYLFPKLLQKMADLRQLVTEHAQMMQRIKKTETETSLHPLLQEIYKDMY
Description: (§1) Transfections were stopped after 16 h by adding DMEM/10% FCS. Cells were detached with trypsin, re-seeded in 96-well plates for 6 h in DMEM/10% FCS, and incubated for 24 h in DMEM/0.2% FCS with increasing concentrations of the test compounds or vehicle (DMSO, 0.1% final concentration). At the end of the experiment, cells were washed once with ice-cold PBS, lysed, and luciferase and β-galactosidase activities were measured. Luciferase activity was normalised to that of the internal control, β-galactosidase. All transfection experiments were performed at least five times.
(§2) EC50 values against human PPARα/Gal4, PPARβ/δ/Gal4 and PPARγ/Gal4 receptors.

[2] = tested on: hPPARα, hPPARβ/δ, and hPPARγ; experiment: PPAR transactivation assays, agonist profile over the three isoforms; conditions: always with partial activity on the PPARγ isoform
[3] = target: T2, hPPARα (Homo sapiens, UniProt Q07869); experiment: PPAR transactivation assay, human chimeric PPAR/Gal4 reporter luciferase system in Cos-7 cells (PPARα); assay type: cell-based
T2 sequence (Q07869 167-468): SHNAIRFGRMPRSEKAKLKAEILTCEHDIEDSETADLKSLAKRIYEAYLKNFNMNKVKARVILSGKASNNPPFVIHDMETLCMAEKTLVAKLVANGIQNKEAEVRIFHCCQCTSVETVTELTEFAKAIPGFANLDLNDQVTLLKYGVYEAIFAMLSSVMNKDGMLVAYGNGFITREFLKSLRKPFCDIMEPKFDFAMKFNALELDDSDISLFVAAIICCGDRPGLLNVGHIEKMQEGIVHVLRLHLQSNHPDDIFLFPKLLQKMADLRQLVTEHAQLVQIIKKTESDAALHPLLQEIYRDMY
Description: as §1, §2

[4] = tested on: ob/ob mice; experiment: In vivo study in ob/ob mice, biochemical analysis of blood; conditions: orally, 10 mg/kg/d, 15 days
Description: Animal studies were carried out in accordance with Directive 2010/63/EU for experimentation on animals. The handling of the animals and the experimental protocols were approved by the Animal Experimentation Ethics Committee of the University of Valencia (Protocol No. A1469445706311). Six-week-old male ob/ob mice (C57BL/6.Cg-Lepob/J) were supplied by Charles River Laboratories International (Wilmington, MA). Blood samples were collected from mice fasted for 6 hours to determine basal blood glucose levels. The animals, randomly divided into two groups (N ≈ 10-11 per group), were treated daily with vehicle (1% hydroxyethyl cellulose, Sigma-Aldrich) or with tetrahydroquinoline 5a at 10 mg/kg/day, for 15 days orally. After 15 days of treatment, and 6 h of fasting, the mice were anesthetized by inhalation of isoflurane and blood samples were collected in tubes with heparin or EDTA by intracardiac puncture. Plasma samples were obtained and stored at -80°C. Liver and epididymal white adipose tissue were removed and part of both organs were quickly frozen in liquid N2 for qPCR studies.
Plasma levels of total cholesterol and HDL-cholesterol (HDL-c) were determined by enzymatic processes using commercial kits: LabAssay™ Cholesterol (Wako Pure Chemicals Industries, Cape Charles, VA) and Mouse HDL-Cholesterol Assay Kit (Crystal Chem, Elk Grove Village, IL), respectively. Non-HDL cholesterol levels were calculated (total cholesterol - HDL-c). Fasting blood glucose levels were measured using a glucometer (Contour Next, Bayer HealthCare Pharmaceuticals LLC, Berlin, Germany), while insulin levels were determined using the commercial Mouse Insulin ELISA kit (Mercodia, Uppsala, Sweden). The HOMA-IR index was calculated using the following formula: fasting blood glucose (mmol/L) * fasting insulinemia (µU/mL) / 22.5.
Tetrahydroquinoline 5a administered for 15 days (orally, 10 mg/kg/d) to an obese and diabetic mouse model (ob/ob), improved lipid and carbohydrate parameters. Indeed, 5a decreased total cholesterol and non-HDL cholesterol levels, as well as insulin levels and the HOMA-IR index in the blood of oblob mice, compared to vehicle-treated mice (Figures 4A-4D).

[5] = tested on: Pdk4; experiment: Pdk4 mRNA expression by RT-qPCR in L929sA WT cells; assay type: cell-based, mouse; conditions: 10 µM, 6 h
Description: RNA was isolated using the RNeasy Purification Kit (Qiagen) according to the manufacturer's instructions. cDNA was synthesised using a PrimeScript kit (Takara). RT-qPCR was performed using Light Cycler 480 SYBR Green I Master Mix (Roche).
Pyruvate Dehydrogenase Kinase 4 gene (Pdk4), a well-known target gene of PPARs, encodes a protein that regulates the phosphorylation and inactivation of the pyruvate dehydrogenase complex in response to physiological conditions. This response switches the energy source from glucose to fatty acids to maintain blood glucose levels to, thereby, increase lipid metabolism. Because it is a well-known target gene of PPARs, the effect of the 2- and 3-prenylated esters of tetrahydroquinolines and quinolines on a Pdk4 region reported to bind PPARα, was evaluated. The L929sA cells that were stably transfected with a PDK4-(PPRE)3-Luc+ reporter gene construct were used.

[6] = target: T3, hPPARγ (Homo sapiens, UniProt P37231); experiment: PPAR transactivation assay, human chimeric PPAR/Gal4 reporter luciferase system in Cos-7 cells (PPARγ); assay type: cell-based
T3 sequence (P37231 238-505): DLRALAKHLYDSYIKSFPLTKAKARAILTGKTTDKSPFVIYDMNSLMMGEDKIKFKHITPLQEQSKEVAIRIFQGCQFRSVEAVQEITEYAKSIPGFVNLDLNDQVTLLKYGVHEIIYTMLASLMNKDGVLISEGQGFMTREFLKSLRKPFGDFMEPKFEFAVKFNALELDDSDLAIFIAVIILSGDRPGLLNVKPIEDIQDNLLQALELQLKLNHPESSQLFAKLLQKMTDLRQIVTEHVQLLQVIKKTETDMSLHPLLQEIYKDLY
Description: as §1, §2

[7] = compared to vehicle-treated mice

Compound: CCOC(=O)CC/C(C)=C/CCC1CCc2cc(OCc3ccccc3)ccc2N1C (centres unmarked) [Compound 5a, Ethyl (E)-7-(6-(benzyloxy)-1-methyl-1,2,3,4-tetrahydroquinolin-2-yl)-4-methylhept-4-enoate]
- Emax at 10 µM ([1]; COS-7, read-out: Efficacy (%) at 10 µmol/L PPARβ/δ): 60%
- pEC50 ([1]; human PPARβ/δ/Gal4, Cos-7 cells, concentration range 0.001-10 µmol/L, NA: not active): 5.59
- PPAR agonist activity profile [2]: pan-PPAR agonist activity
- pEC50 [3]: 5.44
- Emax at 10 µM ([3]; COS-7, read-out: Efficacy (%) at 10 µmol/L PPARα): 76%
- levels of hepatic transaminase ALT [4]: did not increase
- levels of hepatic transaminase AST [4]: did not increase
- HOMA-IR index ([4]; compared to vehicle, calculated from fasting glucose and insulin): decreased
- non-HDL cholesterol levels ([4]; compared to vehicle, total cholesterol - HDL-c): decreased
- insulin levels [4, 7]: decreased
- total cholesterol levels [4, 7]: decreased
- expression of Pdk4 mRNA [5]: increased expression levels of Pdk4
- Emax at 10 µM ([6]; COS-7, read-out: Efficacy (%) at 10 µmol/L PPARγ): 43%
- pEC50 ([6]; human PPARγ/Gal4, Cos-7 cells, concentration range 0.001-10 µmol/L, NA: not active): 5.57

Reference: patent EP4635565A1, “PRENYLATED TETRAHYDROQUINOLINES AND QUINOLINES WITH PPAR AGONIST ACTIVITY” (Fundación para la Investigación del Hospital Clínico de la …, priority 2024, dated 2025)
